These molecules were tested against T1, recombinant human GST-SYK (Homo sapiens, UniProt P43405) (assay: Homogeneous Time-Resolved Fluorescence (HTRF) assay for the recombinant human Syk enzyme). Settings: HTRF assay, recombinant human GST-SYK; IC50 given as class symbols; read-out: rhSYK Activity.
T1 construct: purchased Carna Biosciences 08-176
Assay type: biochemical
In short: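 HTRF read-out: Europium-anti-phosphotyrosine antibody (2 nM) plus SA-APC (70 nM) in EDTA-containing buffer quenched the reaction, and signal was read after 30 minutes. Kinase step used […], 250 nM biotinylated peptide, 25 μM ATP, 5 mM Mg, 45′ at room temperature.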
In the case of Cc1cc(Nc2nccc(C(F)(F)F)n2)cc(-c2ccnc(C(F)(F)F)c2)c1 [Example 2.123, N-{3-methyl-5-[2-(trifluoromethyl)pyridin-4-yl]phenyl}-4-(trifluoromethyl)pyrimidin-2-amine], the IC50 is reported as 100 to 1000 nM. With Cc1cc(Nc2nccc(C(F)(F)F)n2)cc(-c2ccncc2)c1 [Example 2.124, N-(3-methyl-5-pyridin-4-ylphenyl)-4-(trifluoromethyl)pyrimidin-2-amine] the IC50 was < 100 nM. With Cc1cc(Nc2nccc(C(F)(F)F)n2)cc(-c2ccnc(O)c2)c1 [Example 2.125, 4-(3-methyl-5-{[4-(trifluoromethyl)pyrimidin-2-yl]amino}phenyl)pyridin-2-ol] the IC50 was < 100 nM. With Cc1cc(Nc2nccc(C(F)(F)F)n2)cc(-c2ccnc(N3CCNCC3)c2)c1 [Example 2.126, N-[3-methyl-5-(2-piperazin-1-ylpyridin-4-yl)phenyl]-4-(trifluoromethyl)pyrimidin-2-amine] the IC50 was < 100 nM. With Cc1cc(Nc2nccc(C(F)(F)F)n2)cc(-c2ccnc(Br)c2)c1 [Example 2.127, N-[3-(2-bromopyridin-4-yl)-5-methylphenyl]-4-(trifluoromethyl)pyrimidin-2-amine] the IC50 was 100 to 1000 nM. For O=C(O)CCc1cc(-c2cccc(Nc3nccc(C(F)(F)F)n3)c2)ccn1 [Example 2.129, 3-[4-(3-{[4-(trifluoromethyl)pyrimidin-2-yl]amino}phenyl)pyridin-2-yl]propanoic acid], the IC50 was < 100 nM. With COc1ccnc(Nc2cc(C)cc(-c3ccnc(CCC(=O)O)c3)c2)n1 [Example 2.131, 3-(4-{3-[(4-methoxypyrimidin-2-yl)amino]-5-methylphenyl}pyridin-2-yl)propanoic acid] the IC50 was < 100 nM. In the case of Cc1cc(Nc2nccc(C(F)(F)F)n2)cc(-c2ccnc(CCC(=O)O)c2)c1 [Example 2.133, 3-[4-(3-methyl-5-{[4-(trifluoromethyl)pyrimidin-2-yl]amino}phenyl)pyridin-2-yl]propanoic acid], the IC50 is reported as < 100 nM. With CCOC(=O)CCc1cc(-c2cc(C)cc(Nc3nccc(C)n3)c2)ccn1 [Example 2.134, ethyl 3-(4-{3-methyl-5-[(4-methylpyrimidin-2-yl)amino]phenyl}pyridin-2-yl)propanoate] the IC50 was 100 to 1000 nM. Cc1cc(Nc2nccc(C)n2)cc(-c2ccnc(CCC(=O)O)c2)c1 [Example 2.135, 3-(4-{3-methyl-5-[(4-methylpyrimidin-2-yl)amino]phenyl}pyridin-2-yl)propanoic acid] was tested, and the IC50 was < 100 nM. CCOC(=O)CCc1cc(-c2cc(C)cc(Nc3nccc(C4CC4)n3)c2)ccn1 [Example 2.136, ethyl 3-(4-{3-[(4-cyclopropylpyrimidin-2-yl)amino]-5-methylphenyl}pyridin-2-yl)propanoate] gave an IC50 of 100 to 1000 nM. Cc1cc(Nc2nccc(C3CC3)n2)cc(-c2ccnc(CCC(=O)O)c2)c1 [Example 2.137, 3-(4-{3-[(4-cyclopropylpyimidin-2-yl)amino]-5-methylphenyl}pyridin-2-yl)propanoic acid] was tested, and the IC50 was < 100 nM. Cc1cc(Nc2nccc(C(F)(F)F)n2)cc(-c2ccc(C(C)O)nc2)c1 (stereo not shown) [Example 2.138, 1-[5-(3-Methyl-5-{[4-(trifluoromethyl)pyrimidin-2-yl]amino}phenyl)pyridin-2-yl]ethanol] was tested, and the IC50 was < 100 nM. With Cc1cc(Nc2nccc(C(F)(F)F)n2)cc(-c2ccc(CC(=O)O)nc2)c1 [Example 3.1, 2-(5-(3-methyl-5-((4-(trifluoromethyl)pyrimidin-2-yl)amino)phenyl)pyridin-2-yl)acetic acid] the IC50 was < 100 nM. In the case of Cc1cc(Nc2nccc(C(F)(F)F)n2)cc(-c2ccc(CC(=O)N(C)C)nc2)c1 [Example 3.2, N,N-dimethyl-2-(5-(3-methyl-5-((4-(trifluoromethyl)pyrimidin-2-yl)amino)phenyl)pyridin-2-yl)acetamide], the IC50 is reported as < 100 nM. With COc1ccnc(Nc2cc(C)cc(-c3ccnc(N)c3)c2)n1 [Example 4.1, N-[3-(2-aminopyridin-4-yl)-5-methylphenyl]-4-methoxypyrimidin-2-amine] the IC50 was < 100 nM. For Cc1cc(Nc2nccc(C(F)(F)F)n2)cc(-c2ccc(N)nc2)c1 [Example 4.2, N-[3-(6-aminopyridin-3-yl)-5-methylphenyl]-4-(trifluoromethyl)pyrimidin-2-amine], the IC50 was < 100 nM. Cc1cc(Nc2nccc(C(F)(F)F)n2)cc(-c2cncc(F)c2)c1 [Example 4.3, N-[3-(5-fluoropyridin-3-yl)-5-methylphenyl]-4-(trifluoromethyl)pyrimidin-2-amine] was tested, and the IC50 was < 100 nM. With Cc1cc(Nc2nccc(C(F)(F)F)n2)cc(-c2ccc(F)nc2)c1 [Example 4.4, N-[3-(6-fluoropyridin-3-yl)-5-methylphenyl]-4-(trifluoromethyl)pyrimidin-2-amine] the IC50 was 100 to 1000 nM. COc1ccc(-c2cc(C)cc(Nc3nccc(C(F)(F)F)n3)c2)cn1 [Example 4.5, N-[3-(6-methoxypyridin-3-yl)-5-methylphenyl]-4-(trifluoromethyl)pyrimidin-2-amine] showed an IC50 of 100 to 1000 nM. Cc1cc(Nc2nccc(C(F)(F)F)n2)cc(-c2ccc(C(F)(F)F)nc2)c1 [Example 4.6, N-{3-methyl-5-[6-(trifluoromethyl)pyridin-3-yl]phenyl}-4-(trifluoromethyl)pyrimidin-2-amine] showed an IC50 of 100 to 1000 nM. Cc1cc(Nc2nccc(C(F)(F)F)n2)cc(-c2ccc(CO)nc2)c1 [Example 4.7, [5-(3-methyl-5-{[4-(trifluoromethyl)pyrimidin-2-yl]amino}phenyl)pyridin-2-yl]methanol] was tested, and the IC50 was < 100 nM. Cc1cc(Nc2nccc(C(F)(F)F)n2)cc(-c2ccc(O)nc2)c1 [Example 4.8, 5-(3-methyl-5-{[4-(trifluoromethyl)pyrimidin-2-yl]amino}phenyl)pyridin-2-ol] gave an IC50 of 100 to 1000 nM. In the case of COc1cccc(-c2cc(C)cc(Nc3nccc(C(F)(F)F)n3)c2)n1 [Example 4.9], the IC50 is reported as 100 to 1000 nM. For COc1cc(-c2cc(C)cc(Nc3nccc(C(F)(F)F)n3)c2)ccn1 [Example 4.10], the IC50 was 100 to 1000 nM. Cn1cc(-c2cccc(Nc3nccc(C(F)(F)F)n3)c2)ccc1=O [Example 5.1, 1-Methyl-5-(3-{[4-(trifluoromethyl)pyrimidin-2-yl]amino}phenyl)pyridin-2(1H)-one] gave an IC50 of 100 to 1000 nM. Molecule Cn1ccc(-c2cccc(Nc3nccc(C(F)(F)F)n3)c2)cc1=O [Example 5.2, 1-methyl-4-(3-{[4-(trifluoromethyl)pyrimidin-2-yl]amino}phenyl)pyridin-2(1H)-one] has an IC50 of 100 to 1000 nM. Cn1c(-c2cccc(Nc3nccc(C(F)(F)F)n3)c2)cccc1=O [Example 5.3, 1-methyl-6-(3-{[4-(trifluoromethyl)pyrimidin-2-yl]amino}phenyl)pyridin-2(1H)-one] was tested, and the IC50 was 100 to 1000 nM. CNC(=O)Nc1cc(Nc2nccc(C(F)(F)F)n2)cc(-c2cccnc2)c1 [Example 6.1, 1-Methyl-3-[3-(pyridin-3-yl)-5-{[4-(trifluoromethyl)pyrimidin-2-yl]amino}phenyl]urea] was tested, and the IC50 was < 100 nM. In the case of CCNC(=O)Nc1cc(Nc2nccc(C(F)(F)F)n2)cc(-c2cccnc2)c1 [Example 6.3, 1-ethyl-3-(3-pyridin-3-yl-5-{[4-(trifluoromethyl)pyrimidin-2-yl]amino}phenyl)urea], the IC50 is reported as < 100 nM. With Nc1cc(Nc2nccc(C(F)(F)F)n2)cc(-c2ccncc2)c1 [Example 6.4, 5-pyridin-4-yl-N-[4-(trifluoromethyl)pyrimidin-2-yl]benzene-1,3-diamine] the IC50 was < 100 nM. In the case of CC(=O)Nc1cc(Nc2nccc(C(F)(F)F)n2)cc(-c2ccncc2)c1 [Example 6.5, N-(3-pyridin-4-yl-5-{[4-(trifluoromethyl)pyrimidin-2-yl]amino}phenyl)acetamide], the IC50 is reported as < 100 nM. In the case of CCNC(=O)Nc1cc(Nc2nccc(C(F)(F)F)n2)cc(-c2ccc(C(=O)O)nc2)c1 [Example 6.6, 5-(3-[(ethylcarbamoyl)amino]-5-{[4-(trifluoromethyl)pyrimidin-2-yl]amino}phenyl)pyridine-2-carboxylic acid], the IC50 is reported as < 100 nM. For CC(=O)Nc1cc(Nc2nccc(C(F)(F)F)n2)cc(-c2ccc(NC(C)(C)C(=O)O)nc2)c1 [Example 7.1, N-{5-[3-(acetylamino)-5-{[4-(trifluoromethyl)pyrimidin-2-yl]amino}phenyl]pyridin-2-yl}-2-methylalanine], the IC50 was < 100 nM. For CC(=O)Nc1cc(Nc2nccc(C(F)(F)F)n2)cc(-c2ccc(N3CC[C@H]3C(=O)O)nc2)c1 [Example 7.2, (2S)-1-{5-[3-(acetylamino)-5-{[4-(trifluoromethyl)pyrimidin-2-yl]amino}phenyl]pyridin-2-yl}azetidine-2-carboxylic acid], the IC50 was < 100 nM. For CC(=O)Nc1cc(Nc2nccc(C(F)(F)F)n2)cc(-c2ccc(NC3CCNC3=O)nc2)c1 (stereo not shown) [Example 7.3, N-(3-{6-[(2-oxopyrrolidin-3-yl)amino]pyridin-3-yl}-5-{[4-(trifluoromethyl)pyrimidin-2-yl]amino}phenyl)acetamide], the IC50 was < 100 nM. CC(=O)Nc1cc(Nc2nccc(C(F)(F)F)n2)cc(-c2ccc(N3CCNC(=O)CC3)nc2)c1 [Example 7.4, N-(3-[6-(5-oxo-1,4-diazepan-1-yl)pyridin-3-yl]-5-{[4-(trifluoromethyl)pyrimidin-2-yl]amino}phenyl)acetamide] was tested, and the IC50 was < 100 nM. With CC(=O)Nc1cc(Nc2nccc(C(F)(F)F)n2)cc(-c2ccc(N3CCNC(=O)C3)nc2)c1 [Example 7.5, N-(3-[6-(3-oxopiperazin-1-yl)pyridin-3-yl]-5-{[4-(trifluoromethyl)pyrimidin-2-yl]amino}phenyl)acetamide] the IC50 was < 100 nM. For Cc1cc(Nc2nccc(C(F)(F)F)n2)cc(-c2ccc(N3CC[C@H]3C(=O)O)nc2)c1 [Example 7.6, (2S)-1-[5-(3-methyl-5-{[4-(trifluoromethyl)pyrimidin-2-yl]amino}phenyl)pyridin-2-yl]azetidine-2-carboxylic acid], the IC50 was < 100 nM.

Same assay, conditions: recombinant GST-hSYK, 25 μM ATP, HTRF; read-out: IC50 (inhibition of human Syk activity)
Molecule CC(=O)Nc1cc(Nc2nccc(C(F)(F)F)n2)cc(-c2ccc(NC(C)(C)C(=O)O)nc2)c1 [Example 7.1, N-{5-[3-(acetylamino)-5-{[4-(trifluoromethyl)pyrimidin-2-yl]amino}phenyl]pyridin-2-yl}-2-methylalanine] has an IC50 of 3.9 nM.

— patent US9376418B2, “Substituted pyridine spleen tyrosine kinase (SYK) inhibitors” (Merck Sharp & Dohme Corp., priority 2012, dated 2016)
